Publication PMC3592416 (Nucleic Acids Research, 2012)

Experiments:
[1] = molecular target: T1, PoTC (Saccharomyces cerevisiae, UniProt P02406+P0CX27); assay: Complete disassembly of PoTC by eEF3/ATP; assay type: biochemical; settings: for inhibition of eEF3-dependent disassembly reaction: 1 mM antibiotic
[2] = system: translocation; settings: cited from earlier work
[3] = system: eEF3/ribosomes; assay: ATP hydrolysis assay; assay type: biochemical, Saccharomyces cerevisiae; settings: for amount of ATPase inhibited: total ATP hydrolysis 97 pmol
[4] = molecular target: T1, PoTC; settings: cited from earlier work
[5] = molecular target: T1, PoTC; assay: Release of mRNA from PoTC; assay type: biochemical; settings: for effect of Mg2+ on the inhibitory effect (mRNA release): 100 µM antibiotic, various concentrations of MgCl2
[6] = system: yeast ribosomal subunits; assay: Induction of subunit association; assay type: biochemical; settings: 1 mM PAR, 5 s at 30°C after disassembly
[7] = molecular target: vacant ribosomes; settings: read-out: Kd with vacant ribosomes; cited from earlier work
[8] = molecular target: T1, PoTC; settings: inhibitor alone, without eEF2/GTP; cited from earlier work
[9] = 1 mM antibiotic, 50 µM ATP, 0.5 µM eEF3, 1 min 30°C

T1 sequence (P02406 2-149): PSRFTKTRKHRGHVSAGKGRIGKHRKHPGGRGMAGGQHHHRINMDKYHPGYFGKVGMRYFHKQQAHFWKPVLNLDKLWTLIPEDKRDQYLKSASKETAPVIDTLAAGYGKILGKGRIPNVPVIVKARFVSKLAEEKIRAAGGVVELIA
T1 sequence (P0CX27 2-106): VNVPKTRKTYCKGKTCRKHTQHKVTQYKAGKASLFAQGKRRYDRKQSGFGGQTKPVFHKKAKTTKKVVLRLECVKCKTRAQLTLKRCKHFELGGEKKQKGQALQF
T1 sequence (P16521 2-1044 partner): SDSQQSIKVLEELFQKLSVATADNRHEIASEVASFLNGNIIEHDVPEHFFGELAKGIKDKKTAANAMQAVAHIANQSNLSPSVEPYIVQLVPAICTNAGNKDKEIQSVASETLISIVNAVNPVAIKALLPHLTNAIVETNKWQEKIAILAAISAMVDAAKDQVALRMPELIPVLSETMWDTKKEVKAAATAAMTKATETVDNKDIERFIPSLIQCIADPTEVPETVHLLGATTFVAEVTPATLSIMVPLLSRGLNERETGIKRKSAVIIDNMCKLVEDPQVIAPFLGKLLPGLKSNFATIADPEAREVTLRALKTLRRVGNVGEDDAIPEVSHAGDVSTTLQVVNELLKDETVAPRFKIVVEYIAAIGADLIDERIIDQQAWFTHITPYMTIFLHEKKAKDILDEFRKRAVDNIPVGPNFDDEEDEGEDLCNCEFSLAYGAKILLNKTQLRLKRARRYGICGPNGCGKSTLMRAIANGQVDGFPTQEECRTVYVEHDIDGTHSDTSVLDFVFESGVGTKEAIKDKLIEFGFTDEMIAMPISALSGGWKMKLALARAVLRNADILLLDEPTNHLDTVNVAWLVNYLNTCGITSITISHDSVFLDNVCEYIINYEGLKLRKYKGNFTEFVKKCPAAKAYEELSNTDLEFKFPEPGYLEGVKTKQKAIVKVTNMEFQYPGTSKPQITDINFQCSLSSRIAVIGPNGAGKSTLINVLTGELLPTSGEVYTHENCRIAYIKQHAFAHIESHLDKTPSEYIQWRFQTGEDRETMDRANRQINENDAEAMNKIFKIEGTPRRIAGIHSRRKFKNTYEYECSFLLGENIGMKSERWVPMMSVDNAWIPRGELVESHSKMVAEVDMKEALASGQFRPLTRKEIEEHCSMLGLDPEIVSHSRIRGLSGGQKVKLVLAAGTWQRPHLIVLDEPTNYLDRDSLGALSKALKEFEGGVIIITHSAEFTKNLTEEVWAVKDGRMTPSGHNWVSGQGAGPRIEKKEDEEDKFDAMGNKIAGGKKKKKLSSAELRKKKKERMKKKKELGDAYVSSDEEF

SMILES | effect of Mg2+ on the inhibitory effect (mRNA release) [5] | inhibition of ATP hydrolysis by eEF3/ribosomes [3, 9] [%] | amount of ATPase inhibited ([3]; 1 mM antibiotic) [pmol] | inhibition of eEF3-dependent disassembly reaction [1] | inhibition of eEF3-dependent release of mRNA from PoTC [8] | other results
C/C(=C\[C@H](C)C(=O)C[C@H](O)CC1CC(=O)NC(=O)C1)[C@@H]1OC(=O)/C=C/CC/C=C/C=C\[C@@H]1C [LTM, lactimidomycin] | – | – | – | – | – | concentration at which maximum inhibition was obtained ([1]; three disassembly reactions): 100 µM; concentration which inhibits translocation almost completely [2]: 200 µM
[O]=[V]([O-])([O-])[O-] [vanadate] | – | – | – | – | – | amount of ATP hydrolysis inhibited ([3]; vanadate positive control): 52 pmol; inhibition of ATP hydrolysis by eEF3/ribosomes ([3]; vanadate positive control): about 50%; effect on the disassembly of PoTC [4]: without inhibiting
NC[C@@H]1O[C@H](O[C@H]2[C@@H](O)[C@H](O[C@@H]3[C@@H](O)[C@H](N)C[C@H](N)[C@H]3O[C@H]3O[C@H](CO)[C@@H](O)[C@H](O)[C@H]3N)O[C@@H]2CO)[C@H](N)[C@@H](O)[C@@H]1O [PAR, paromomycin] | not significantly influenced | ~20 | 22 | almost complete maximum inhibition | – | association of ribosomal subunits [6]: re-associated yeast ribosomal subunits
C[C@@H]1C[C@@H]([C@H](O)CC2CC(=O)NC(=O)C2)C(=O)[C@@H](C)C1 [CHX, cycloheximide] | remarkable stimulatory effect | ~20 | 22 | almost complete maximum inhibition | – | mode of inhibition with respect to ATP ([5]; Lineweaver-Burk, mRNA release): non-competitive inhibitor; mode of inhibition with respect to eEF3 ([5]; Lineweaver-Burk, mRNA release): non-competitive inhibitor; IC50 ([2]; read-out: IC50 for the inhibition of translocation): 1.2 µM; Kd [7]: 15 µM
CC(=O)O[C@H]1C[C@@]2(C)[C@@H](C[C@@H](O)[C@H]3[C@@]4(C)CC[C@@H](O)[C@@H](C)[C@@H]4CC[C@@]32C)/C1=C(\CCC=C(C)C)C(=O)O [FA, fusidic acid] | – | – | – | – | only slightly inhibit | –
CO[C@H]1[C@@H](O)[C@H](O)[C@H](OC[C@@]23C[C@@H]4[C@H](C)CC[C@H]4[C@@]4(C=O)CC2C=C(C(C)C)[C@@]34C(=O)O)O[C@@H]1C [SOR, sordarin] | – | – | – | – | only slightly inhibit | –
